For data set [1], the target named is human GLP-1 receptor (hGLP-1R) (Homo sapiens, UniProt P43220). As to the kind of experiment: In vitro cellular cAMP assay for GLP-1 receptor efficacy (HEK-293 cell line over-expressing receptor). It is filed as cell-based. Conditions: HEK-293, 0.1% BSA.
For data set [2], the target named is T1, human GIP receptor (hGIPR) (Homo sapiens, UniProt P48546).
T1 sequence (P48546 22-466): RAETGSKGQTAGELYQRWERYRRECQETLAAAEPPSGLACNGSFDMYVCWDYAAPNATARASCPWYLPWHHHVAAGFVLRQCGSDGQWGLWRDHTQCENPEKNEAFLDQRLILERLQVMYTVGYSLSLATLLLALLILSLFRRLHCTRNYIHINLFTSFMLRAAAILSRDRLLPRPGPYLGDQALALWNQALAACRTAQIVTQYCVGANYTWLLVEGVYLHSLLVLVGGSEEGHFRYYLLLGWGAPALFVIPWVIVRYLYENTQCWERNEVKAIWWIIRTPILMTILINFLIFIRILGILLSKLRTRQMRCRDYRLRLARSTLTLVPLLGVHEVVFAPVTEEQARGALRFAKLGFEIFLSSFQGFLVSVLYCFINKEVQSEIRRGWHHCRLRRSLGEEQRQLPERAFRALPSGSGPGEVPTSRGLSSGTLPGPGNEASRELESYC
Nature of the data set: Binding assay, displacement of [125I]GIP from HEK-293 membranes over-expressing GIPR (SPA). Particulars: [125I]GIP displacement. The method, then:
(1) Preparation of Membranes from HEK-293 Cells Over-Expressing GIPR or GLP-1R
HEK-293 cells recombinantly over-expressing GIPR or GLP-1R were grown to 50% confluency, washed with warm 1×PBS (Gibco) and detached in HEPES/EDTA-buffer (100 mM HEPES pH 7.5, 5 mM EDTA). Cells were harvested by centrifugation at 4° C. and 3000×g and the pellets were stored at −80° C. until further processing.
After thawing on ice, pellets were resuspended in HEPES/EDTA-buffer and homogenized on ice for 1 min using Ultra-Turray T25. After subsequent sonification the cell debris was removed by centrifugation at 1000×g and 4° C. Supernatants were then ultra-centrifuged at 100000×g and 4° C. under vacuum for 30 min. Pellets were resuspended in HEPES/EDTA/NaCl-buffer (20 mM HEPES, 1 mM EDTA, 150 mM NaCl; add 1 Complete Mini Protease inhibitor cocktail to 10 ml buffer) and protein content was determined via BCA-Protein assay.
(2) Measurement of Binding Activity of Test Compounds to Human GIPR or GLP-1R
(Displacement assays read how much labelled ligand stays bound in the presence of the test substance.)

The target in another data set is T2, human GIP receptor (Homo sapiens, UniProt P48546).
T2 construct: human adipocytes endogenously expressing the human GIP receptor; host or cells: human preadipocytes (Lonza) differentiated to adipocytes
T2 sequence (P48546 22-466): T1 sequence (P48546 22-466)
As to the kind of experiment: In vitro cellular cAMP assay for GIP receptor efficacy (human adipocytes). It is filed as cell-based. Conditions: for EC50: read-out: hGIPR EC50; for Emax: read-out: hGIPR Emax. As for the experimental part:
For this, one vial of human preadipocytes (˜10^6 cells; Lonza) was thawed in a T-75 cell culture dish. The cells were cultivated at 37° C., 5% CO2, 95% humidity in Preadipocyte Growth Medium with Supplement Mix from Promo Cell.
After 3 days, the cells were washed with PBS and 1.5 ml Trypsin, incubated for 4 min, then resuspended in medium, centrifugated for 10 min @ 300 rcf RT, resuspended again and distributed to four T-75 cell culture dishes. Again, the cells were cultivated at 37° C., 5% CO2, 95% humidity.
After 5 days, the cells were washed with PBS and 1.5 ml Trypsin, incubated for 4 min, then resuspended in medium, centrifugated for 10 min @ 300 rcf RT, resuspended again and sawn in T-75 dishes (2.5×10^6 cells per dish) in 15 ml Differentiation medium each.
The differentiation medium had the following composition: DMEM (Gibco), Ham's F10 (Gibco), 15 mM HEPES (Gibco), 3% FCS (PAA), 33 μM biotin (Sigma-Aldrich), 17 μM Pantothenate (Sigma-Aldrich), 0.1 μM human insulin (Sigma-Aldrich), 1 μM dexamethason (Sigma-Aldrich), 0.1 μM PPARgamma agonist (#R2408, Sigma-Aldrich), 0.6×Anti-Anti (#15240, ThermoFisher), 200 μM IBMX (AppliChem), and 0.01 μM L-thyroxine (Sigma-Aldrich).
After 6 days of differentiation, 5000 cells per well were dispensed on a 96-well plate (#CLS3694 from Corning®, Sigma-Aldrich). For measurement of cAMP generation, 25 μL of test compound was added to each well of the 96-well plate, followed by incubation for 30 min at room temperature.
The cAMP generated following test compound stimulation was determined using a kit from Cisbio Corp. based on HTRF (Homogenous Time Resolved Fluorescence). The cAMP assay was performed according to manufacturer's instructions (Cisbio).
The cAMP content of cells was determined using a kit from Cisbio Corp. based on HTRF (Homogenous Time Resolved Fluorescence).
After addition of HTRF reagents diluted in lysis buffer (kit components), the plates were incubated for 1 h, followed by measurement of the fluorescence ratio at 665/620 nm.

A short description of data set [3]: Solubility assessment (UHPLC-UV of supernatant, target 10 mg/ml). It is filed as physicochemical. Particulars: for Soluble amount: 24 h, pH 7.4. As for the experimental part:
Prior to the solubility measurement of a peptide batch, its purity was determined through UHPLC/MS.
Therefore, solutions from solid samples were prepared in a buffer system with a concentration of 10 mg/ml compound based on the previously determined % purity: • Solubility buffer system A) 100 mM phosphate buffer pH 7.4 • Solubility buffer system B) 8 mM phosphate buffer pH 7.4, 14 mg/ml propylene glycol, 5.5 mg/ml phenol • Solubility buffer system C) 100 mM phosphate buffer pH 7.4, 2.7 mg/ml m-cresol
UHPLC-UV was performed after 1 h of gentle agitation and storage at 5° C. overnight (24 h) from the supernatant, which was obtained after 15 min of centrifugation at 2500 RCF (relative centrifugal acceleration).
The different UV extinction coefficients of sample and reference peptide were calculated based on the different amino acid sequences and considered in the concentration calculation.
The analytical method used was Analytical UHPLC Method A.
Peptide samples were prepared in solubility buffer system A or C and solubility was assessed as described in Methods.

Values after ≈ are worked out from the molar mass of the structure shown. Numbered stars: 1 amine (or outer) side, 2 acyl side, 3 side chain; on linkers, the order of the positions; unused ones are H or OH. Square brackets hold non-standard residues; d marks the D form. Side chains are listed from the residue outwards. Peptide text beside a SMILES is read from it. * marks the point of attachment. C18 diacid = O=C(O)CCCCCCCCCCCCCCCCC(=O)*; γGlu = O=C(O)[C@H](CCC(=O)[*:2])N[*:1]; hLeu = CC(C)CC[C@H](N)C(=O)O; dIva = CC[C@@](C)(N)C(=O)O; AEEA = NCCOCCOCC(=O)O; Aib = CC(C)(N)C(=O)O

As a reminder, the EC50 is the midpoint of the concentration-response curve. The IC50 is the point on the concentration scale where inhibition reaches its midpoint. A higher IC50 goes with a need for much substance. What is called Emax is the size of the effect at its maximum, as opposed to the concentration needed. A word on the solubility: it is the concentration that dissolves in the medium under given conditions.

human GLP-1 receptor (hGLP-1R), sequence (P43220 24-463): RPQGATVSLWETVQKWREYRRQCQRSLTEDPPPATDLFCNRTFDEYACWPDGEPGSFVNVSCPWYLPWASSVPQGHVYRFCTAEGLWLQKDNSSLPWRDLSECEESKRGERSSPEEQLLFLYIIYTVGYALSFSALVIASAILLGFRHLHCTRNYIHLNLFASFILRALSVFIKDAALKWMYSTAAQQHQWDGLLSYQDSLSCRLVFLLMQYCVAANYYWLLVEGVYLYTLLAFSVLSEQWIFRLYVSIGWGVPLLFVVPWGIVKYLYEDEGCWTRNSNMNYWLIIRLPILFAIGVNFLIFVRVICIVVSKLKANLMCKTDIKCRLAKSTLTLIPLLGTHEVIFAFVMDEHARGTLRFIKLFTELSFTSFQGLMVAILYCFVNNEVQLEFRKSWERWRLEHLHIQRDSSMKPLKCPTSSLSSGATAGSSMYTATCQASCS

For the compound `CC[C@H](C)[C@H](NC(=O)[C@H](Cc1ccccc1)NC(=O)[C@H](CCC(=O)O)NC(=O)[C@H](CCC(=O)O)NC(=O)[C@H](CCC(N)=O)NC(=O)[C@H](Cc1c[nH]cn1)NC(=O)[C@@H](NC(=O)[C@H](CCCNC(=N)N)NC(=O)[C@H](CC(=O)O)NC(=O)[C@H](CCCCNC(=O)COCCOCCNC(=O)COCCOCCNC(=O)CC[C@H](NC(=O)CCCCCCCCCCCCCCCCC(=O)O)C(=O)O)NC(=O)C(C)(C)NC(=O)[C@@H](NC(=O)[C@H](CO)NC(=O)[C@H](CC(C)C)NC(=O)[C@H](CC(=O)O)NC(=O)[C@H](CO)NC(=O)[C@@H](NC(=O)[C@H](Cc1ccccc1)NC(=O)[C@@H](NC(=O)CNC(=O)[C@H](CCC(=O)O)NC(=O)C(C)(C)NC(=O)[C@@H](N)Cc1ccc(O)cc1)[C@@H](C)O)[C@@H](C)CC)[C@@H](C)CC)[C@@H](C)CC)C(=O)N[C@@H](CCC(=O)O)C(=O)N[C@@H](Cc1c[nH]c2ccccc12)C(=O)N[C@@H](CC(C)C)C(=O)N[C@@H](CC(C)C)C(=O)N[C@@H](C)C(=O)N[C@@H](CCC(N)=O)C(=O)N[C@@H](CCC(=O)O)C(=O)N1CCC[C@H]1C(=O)N[C@@H](CO)C(=O)N[C@@H](CO)C(=O)NCC(=O)N[C@@H](C)C(=O)N1CCC[C@H]1C(=O)N1CCC[C@H]1C(=O)N1CCC[C@H]1C(=O)N[C@@H](CO)C(=O)O` [SEQ ID NO: 28, H2N-Y-Aib-E-G-T-F-I-S-D-L-S-I-Aib-K[{AEEA}2-gGlu-C18OH]-DRIHQEEFIEWLLAQEPSSGAPPPS-OH] (H-Y[Aib]EGTFISDLSI[Aib]K([AEEA-AEEA-γGlu-C18 diacid])DRIHQEEFIEWLLAQEPSSGAPPPS-OH), the EC50 in data set [1] is more than 10 nM. The same compound gave an IC50 in data set [2] of 0.8 nM. At human GIP receptor, the EC50 was 0.5 nM and the Emax stood at 103%. Moreover, the Soluble amount in data set [3] was more than 9.0 mg/mL. Besides, the solubility at 24 h in data set [3] (pH 7.4, Soluble amount) was more than 9400 µg/mL.

Compound `CC[C@H](C)[C@H](NC(=O)[C@H](Cc1ccccc1)NC(=O)[C@H](CCC(=O)O)NC(=O)[C@H](CCC(=O)O)NC(=O)[C@H](CCC(N)=O)NC(=O)[C@H](Cc1c[nH]cn1)NC(=O)[C@@H](NC(=O)[C@H](CCCNC(=N)N)NC(=O)[C@H](CC(=O)O)NC(=O)[C@H](CCCCNC(=O)COCCOCCNC(=O)COCCOCCNC(=O)CC[C@H](NC(=O)CCCCCCCCCCCCCCCCC(=O)O)C(=O)O)NC(=O)C(C)(C)NC(=O)[C@@H](NC(=O)[C@H](CO)NC(=O)[C@H](CCC(C)C)NC(=O)[C@H](CC(=O)O)NC(=O)[C@H](CO)NC(=O)[C@@H](NC(=O)[C@H](Cc1ccccc1)NC(=O)[C@@H](NC(=O)CNC(=O)[C@H](CCC(=O)O)NC(=O)C(C)(C)NC(=O)[C@@H](N)Cc1ccc(O)cc1)[C@@H](C)O)[C@@H](C)CC)[C@@H](C)CC)[C@@H](C)CC)C(=O)N[C@@H](CCC(=O)O)C(=O)N[C@@H](Cc1c[nH]c2ccccc12)C(=O)N[C@@H](CC(C)C)C(=O)N[C@@H](CC(C)C)C(=O)N[C@@H](C)C(=O)N[C@@H](CCC(N)=O)C(=O)NCC(=O)N1CCC[C@H]1C(=O)N[C@@H](CO)C(=O)N[C@@H](CO)C(=O)NCC(=O)N[C@@H](C)C(=O)N1CCC[C@H]1C(=O)N1CCC[C@H]1C(=O)N1CCC[C@H]1C(=O)N[C@@H](CO)C(N)=O` [SEQ ID NO: 34, H2N-Y-Aib-E-G-T-F-I-S-D-Hol-S-I-Aib-K[{AEEA}2-gGlu-C18OH]-DRIHQEEFIEWLLAQGPSSGAPPPS-NH2] (H-Y[Aib]EGTFISD[hLeu]SI[Aib]K([AEEA-AEEA-γGlu-C18 diacid])DRIHQEEFIEWLLAQGPSSGAPPPS-NH2) had an EC50 in data set [1] of more than 10 nM. This compound also came in with an IC50 in data set [2] of 0.3 nM. In addition, at human GIP receptor, the EC50 was found to be 0.5 nM and the Emax was 112%. The compound also had a Soluble amount in data set [3] of more than 8.7 mg/mL. In data set [3] (pH 7.4, Soluble amount), this compound returned a solubility at 24 h of more than 9200 µg/mL.

For `CC[C@H](C)[C@H](NC(=O)[C@H](CCCNC(=N)N)NC(=O)[C@H](CC(=O)O)NC(=O)[C@H](CCCCNC(=O)COCCOCCNC(=O)COCCOCCNC(=O)CC[C@H](NC(=O)CCCCCCCCCCCCCCCCC(=O)O)C(=O)O)NC(=O)C(C)(C)NC(=O)[C@@H](NC(=O)[C@H](CO)NC(=O)[C@H](CC(C)C)NC(=O)[C@H](CC(=O)O)NC(=O)[C@H](CO)NC(=O)[C@@H](NC(=O)[C@@](C)(CC)NC(=O)[C@@H](NC(=O)CNC(=O)[C@H](CCC(=O)O)NC(=O)C(C)(C)NC(=O)[C@@H](N)Cc1ccc(O)cc1)[C@@H](C)O)[C@@H](C)CC)[C@@H](C)CC)C(=O)N[C@@H](Cc1c[nH]cn1)C(=O)N[C@@H](CCC(N)=O)C(=O)NC(C)(C)C(=O)N[C@@H](CCC(=O)O)C(=O)N[C@@H](Cc1ccccc1)C(=O)N[C@H](C(=O)N[C@@H](CCC(=O)O)C(=O)N[C@@H](Cc1c[nH]c2ccccc12)C(=O)N[C@@H](CC(C)C)C(=O)N[C@@H](CC(C)C)C(=O)N[C@@H](C)C(=O)N[C@@H](CCC(N)=O)C(=O)NCC(=O)N1CCC[C@H]1C(=O)N[C@@H](CO)C(=O)N[C@@H](CO)C(=O)NCC(=O)N[C@@H](C)C(=O)N1CCC[C@H]1C(=O)N1CCC[C@H]1C(=O)N1CCC[C@H]1C(=O)N[C@@H](CO)C(N)=O)[C@@H](C)CC` [SEQ ID NO: 23, H2N-Y-Aib-E-G-T-Iva-I-S-D-L-S-I-Aib-K[{AEEA}2-gGlu-C18OH]-D-R-I-H-Q-Aib-E-F-I-E-W-L-L-A-Q-G-P-S-S-G-A-P-P-P-S-NH2] (H-Y[Aib]EGT[dIva]ISDLSI[Aib]K([AEEA-AEEA-γGlu-C18 diacid])DRIHQ[Aib]EFIEWLLAQGPSSGAPPPS-NH2), the figures for the EC50 (in data set [1]; on human GIP receptor) were more than 10 nM and 0.2 nM, respectively. In data set [2], this compound registered an IC50 of 0.2 nM. Further, the Emax on human GIP receptor was 91%. The compound further yielded a solubility in data set [3] (pH 7.4, Soluble amount) of 6500 µg/mL (≈ 1320 µM).

These data come from patent US20240360194A1, “New Peptides as Potent and Selective GIP Receptor Agonists” (Sanofi, priority 2021, published 2024).
